Values of other authors in article PMC11956011, “An Amazing 30-Year Journey around the DABO Family: A Medicinal Chemistry Lesson on a Versatile Class of Non-nucleoside HIV-1 Reverse Transcriptase Inhibitors” (Journal of Medicinal Chemistry, 2025).
≈ marks a conversion by molar mass, not a printed value. Read-outs that look alike come from different tables or passages of the source. Blank lines part the entries; values can stand above or below the molecule they belong to.

Key:
HIV-1 [1] = test system: HIV-1; set-up: method as in PMID 5787520; settings: 3.5 μM; MoI = 5 CCID50/cell; 40 days
[2] = test system: Y181C HIV-1 mutant strain
[3] = test system: E138K HIV-1 mutant strain
HIV-1 [4] = test system: HIV-1
Vero cells = test system: Vero cells; set-up: method as in doi:10.1016/0223-5234(92)90009-P; settings: Fig 2
C8166 cells = test system: C8166 cells; set-up: method as in doi:10.1016/0223-5234(92)90009-P; settings: Fig 2
[5] = test system: HIV-1 RT (WT, recombinant); settings: for ID50: WT: Fig 9
HIV-1 [6] = test system: HIV-1; set-up: method as in PMID 8602869; settings: read-out: syncytia reduction assay in MT-2-infected cells IC50
HIV-1 [7] = test system: HIV-1; set-up: method as in PMID 8602869; settings: day 3 and 4 p.i.; read-out: p24 inhibition in PBMC-infected cells IC50
P236L HIV-1 RT = test system: P236L HIV-1 RT; set-up: method as in PMID 9748354, PMID 9554867
Y181C HIV-1 RT = test system: Y181C HIV-1 RT; set-up: method as in PMID 9748354, PMID 9554867
E233V HIV-1 RT = test system: E233V HIV-1 RT; set-up: method as in PMID 9748354, PMID 9554867
Y188H HIV-1 RT = test system: Y188H HIV-1 RT; set-up: method as in PMID 9748354, PMID 9554867
HIV-1 IIIB = test system: HIV-1 IIIB; set-up: method as in PMID 9748354, PMID 9554867; settings: read-out: p24 inhibition in MT-4 infected cells, IC90: IIIB
DLV-R-MF (P236L) = test system: DLV-R-MF (P236L); set-up: method as in PMID 9748354, PMID 9554867; settings: read-out: p24 inhibition in MT-4 infected cells, IC90: DLV-R-MF (P236L)
L-697661-R-IIIB (Y181C) = test system: L-697661-R-IIIB (Y181C); set-up: method as in PMID 9748354, PMID 9554867; settings: read-out: p24 inhibition in MT-4 infected cells, IC90: L-697661-R-IIIB (Y181C)
DLV-R-IIIB (L100I) = test system: DLV-R-IIIB (L100I); set-up: method as in PMID 9748354, PMID 9554867; settings: read-out: p24 inhibition in MT-4 infected cells, IC90: DLV-R-IIIB (L100I)
R88703-R-IIIB (Y181C) = test system: R88703-R-IIIB (Y181C); set-up: method as in PMID 9748354, PMID 9554867; settings: read-out: p24 inhibition in MT-4 infected cells, IC90: R88703-R-IIIB (Y181C)
V106A HIV-1 RT = settings: Fig 4
HIV-1IIIB = settings: for ED50: HIV-1 IIIB: Fig 4
N119 (Y181C mutant) = settings: for ED50: HIV-1 119: Fig 4; for Fold-resistance HIV-1 119 (ED50): Fig 4, in parentheses; for EC50: Fig 9
mock-infected cells = settings: for CD50: Fig 4; for CC50: Fig 9
HIV-1 NL4-3 wt = settings: Fig 9; read-out: EC50: NL4-3 wt
[8] = test system: K103N HIV-1 mutant strain; settings: Fig 9
[9] = test system: Y188L HIV-1 mutant strain; settings: Fig 9
[10] = test system: IRLL98 clinical isolate (K101Q, Y181C, G190A); settings: Fig 9
Y181I HIV-1 RT = settings: Fig 9
[11] = test system: EFV^R (K103R + V179D + P225H mutant); settings: Fig 9
A17 (Y181C+K103N) = settings: Fig 9
[12] = set-up: method as in doi:10.1039/c3md00247k, PMID 21752202; settings: in vivo
[13] = set-up: method as in doi:10.1039/c3md00247k; settings: mouse models
[14] = test system: clinical isolates KM018, TC-2, and WAN; settings: read-out: EC50 against clinical isolates KM018, TC-2, and WAN
[15] = rats
HBV = settings: HBV-infected cells; read-out: HBV DNA IC50
malaria = test system: malaria; set-up: method as in PMID 31191911
[16] = test system: colon carcinoma HT-29 cells
[17] = test system: non-small-cell lung cancer HOP-92 cells; set-up: method as in PMID 21849221; settings: at 10 μM

SMILES: Cc1c(C(C)c2c(F)cccc2F)nc(N(C)C)[nH]c1=O (racemic) [compound 116]
water solubility (in words): scant water solubility
HIV-1 replication in acutely infected cultures after 4 h treatment (HIV-1 [1]): totally suppressed HIV-1 replication

SMILES: CCc1c(Cc2c(F)cccc2Cl)nc(SCC(=O)Nc2ccccc2)[nH]c1=O [A compound similar to 105–108]
EC50 [2]: 2.13 µM
EC50 [3]: 2.03 µM
EC50 (HIV-1 [4]; read-out: EC50 against wild-type): 190 nM

SMILES: CCCCOc1nc(Cc2ccc(OC)cc2)cc(=O)[nH]1 [compound 5]
TD50 Vero (Vero cells): 100 µg/mL
TD50 C8166 (C8166 cells): 100 µg/mL

SMILES: Nc1cc(Cl)nc(SCc2ccccc2)n1 [compound 19, 4-amino-2-(benzylthio)-6-chloropyrimidine]
IC50 ([5]; Fig 4, read-out: RT assay IC50): 50 to 80 µM
IC50 (HIV-1 [6]): 0.4 to 4 µM
IC50 (HIV-1 [7]): 0.1 to 1 µM
cytotoxicity in MT-2-infected cells (MT-2 cells): > 16 µM
cytotoxicity in PBMC-infected cells (PBMC): > 16 µM

SMILES: C[C@H](Sc1nc(N)cc(Cl)n1)c1cc2ccoc2cn1 [compound 21, (−)-6-chloro-2-[(1-furo[2,3-c]pyridin-5-ylethyl)thio]-4-pyrimidinamine]
IC50 ([5]; Fig 4, read-out: RT assay, IC50: WT): 0.02 µM
IC50 (L100I HIV-1 RT): 0.039 µM
IC50 (P236L HIV-1 RT): 0.022 µM
IC50 (Y181C HIV-1 RT): 0.179 µM
IC50 (E233V HIV-1 RT): 0.017 µM
IC50 (Y188H HIV-1 RT): 0.077 µM
IC90 (HIV-1 IIIB): 0.001 µM
IC90 (DLV-R-MF (P236L)): 0.008 µM
IC90 (L-697661-R-IIIB (Y181C)): 1.1 µM
IC90 (DLV-R-IIIB (L100I)): 0.07 µM
IC90 (R88703-R-IIIB (Y181C)): 0.17 µM

SMILES: O=c1cc(Cc2ccccc2)nc(NCCCCO)[nH]1 [compound 23, 6-benzyl-N^2-(4-hydroxybutyl)isocytosine]
Ki ([5]; Fig 4): 140 µM
Ki (L100I HIV-1 RT; Fig 4): 525 µM
Ki (V106A HIV-1 RT): 75 µM

SMILES: CCc1c(Cc2cc(C)cc(C)c2)n2c(nc1=O)SCCOC2 [compound 25]
ED50: HIV-1 IIIB (HIV-1IIIB): 0.6 µM
ED50: HIV-1 119 (N119 (Y181C mutant)): 19 µM
Fold-resistance HIV-1 119 (ED50) (N119 (Y181C mutant)): 32
CD50 (mock-infected cells): > 100 µM

SMILES: CCc1c(Cc2cc(C)cc(C)c2)nc2n(c1=O)COCCS2 [compound 26]
ED50: HIV-1 IIIB (HIV-1IIIB): 1.6 µM
ED50: HIV-1 119 (N119 (Y181C mutant)): 6.3 µM
Fold-resistance HIV-1 119 (ED50) (N119 (Y181C mutant)): 4
CD50 (mock-infected cells): > 100 µM

SMILES: Cc1c(O)nc(Sc2ccccc2)nc1Cc1c(F)cccc1F [compound 80]
EC50 (HIV-1 NL4-3 wt): 0.09 µM
EC50 [8]: 42.5 µM
EC50 [9]: > 72.7 µM
EC50 [10]: 16.7 µM
ID50: WT [5]: 32 µM
ID50: Y181I (Y181I HIV-1 RT): > 400 µM
CC50 (mock-infected cells): > 72.7 µM

SMILES: Cc1c(O)nc(Sc2ccc(Cl)cc2)nc1Cc1c(F)cccc1F [compound 81]
EC50 (HIV-1 NL4-3 wt): 0.1 µM
EC50 [8]: 8.01 µM
EC50 [9]: > 66.1 µM
EC50 [10]: > 66.1 µM
ID50: WT [5]: 22 µM
ID50: Y181I (Y181I HIV-1 RT): > 400 µM
CC50 (mock-infected cells): > 66.1 µM

SMILES: COc1ccncc1Sc1nc(Cc2c(Cl)cccc2Cl)c(C)c(=O)[nH]1 [compound 82]
EC50 (HIV-1 NL4-3 wt): 2.72 µM
EC50 [8]: > 61.3 µM
EC50 ([2]; Fig 9): 6.52 µM
EC50 [9]: > 61.3 µM
EC50 [10]: 8.68 µM
ID50: WT [5]: 3.5 µM
ID50: Y181I (Y181I HIV-1 RT): > 400 µM
CC50 (mock-infected cells): > 61.3 µM

SMILES: Cc1cc(C)cc(Cc2nc(Sc3ccccc3)[nH]c(=O)c2C)c1 [compound 83]
EC50 [11]: 80 µM
EC50 (N119 (Y181C mutant)): 5 µM
EC50 (A17 (Y181C+K103N)): > 100 µM
EC50 (HIV-1 [4]; read-out: EC50: HIV-1 wt, Fig 9): 1700 nM
CC50 (mock-infected cells): > 100 µM

SMILES: COc1cccc(Sc2nc(Cc3cc(C)cc(C)c3)c(C)c(=O)[nH]2)c1 [compound 84]
EC50 [11]: 100 µM
EC50 (N119 (Y181C mutant)): 2 µM
EC50 (A17 (Y181C+K103N)): > 100 µM
CC50 (mock-infected cells): > 100 µM

SMILES: Cc1cc(C)cc(Cc2nc(Sc3cccnc3)[nH]c(=O)c2C)c1 [compound 85]
EC50 [11]: 55 µM
EC50 (N119 (Y181C mutant)): 8 µM
EC50 (A17 (Y181C+K103N)): > 55 µM

SMILES: Cc1cc(C)cc(Cc2nc(Sc3cccc4ccccc34)[nH]c(=O)c2C)c1 [compound 86]
EC50 [11]: 80 µM
EC50 (N119 (Y181C mutant)): 5 µM
EC50 (A17 (Y181C+K103N)): > 100 µM
CC50 (mock-infected cells): > 100 µM

EC50 (HIV-2ROD): 8.6 µM
SMILES: CCCN(C)c1nc(C(C)c2c(F)cccc2F)c(C)c(=O)[nH]1 (stereo not drawn) [compound 119]

SMILES: Cc1c(C(C#N)c2c(F)cccc2F)nc(SC(C)C)[nH]c1=O (stereo not drawn) [compound 153]
Fold-resistance E138K (EC50 vs HIV-1IIIB) ([3]; Fig 12, in brackets): 2.4
acute toxicity (in words) [12]: without acute toxicity
oral bioavailability (in words) [13]: optimal oral bioavailability

SMILES: CCc1c(CC2CCCCC2)nc(SCC(=O)c2ccccc2)[nH]c1=O [compound 177]
EC50 (HIV-1IIIB; read-out: EC50 anti-HIV-1 activity, further studies): 0.0024 µM
EC50 (HIV-1 [4]; read-out: EC50 anti-HIV-1 activity, first report, C8166 cells): 0.012 nM
EC50 (HIV-1 [4]; read-out: EC50 vs WT HIV-1): 200 nM
EC50 [14]: 0.00874 to 0.0418 µM

SMILES: CCc1c(CC2CCCCC2)nc(SCC(=O)c2ccc(OP(=O)(OC)OC)cc2)[nH]c1=O [compound 179]
Water solubility with respect to 177 (more water-soluble): 17 fold
Potency against WT HIV-1 with respect to 177 (HIV-1 [4]; more potent): 20 fold
Cytotoxicity with respect to 177 (mock-infected cells; more cytotoxic): 4.5 times

pharmacokinetic properties and bioavailability (in words) [15]: acceptable
SMILES: CCc1c(CC2CCCCC2)nc(SCc2cc(-c3ccc(O)cc3)[nH]n2)[nH]c1=O [compound 180]

pharmacokinetic properties and bioavailability (in words) [15]: acceptable
SMILES: CCc1c(CC2CCCCC2)nc(SCc2cc(-c3ccc(SC)cc3)[nH]n2)[nH]c1=O [compound 181]

IC50 (HBV): 0.2 µM
SMILES: O=c1[nH]c(SC2O[C@H](CO)[C@H](O)[C@@H](O)[C@@H]2O)nc(Cc2ccccc2)c1Cc1ccccc1 (stereo partly drawn) [compound 185]

IC50 (HBV): 0.2 µM
SMILES: O=c1[nH]c(SC2OC[C@H](O)[C@@H](O)[C@@H]2O)nc(Cc2ccccc2)c1Cc1ccccc1 (stereo partly drawn) [compound 186]

SMILES: O=C(CCCCSc1nc(-c2ccc(-c3ccccc3)cc2)cc(=O)[nH]1)NO [compound 195]
outcome in in vivo malaria mouse model (malaria): failed

SMILES: COc1cc(-c2nc(SCC(=O)c3ccc(Cl)cc3)[nH]c(=O)c2C#N)ccc1OCc1ccccc1 [compound 197]
LC50: HT29 [16]: 10.1 µg/mL (≈ 19.5 µM)
LC50: HePG2 (HePG2 cells): 20.9 µg/mL (≈ 40.3 µM)
LC50: MCF7 (breast cancer MCF7 cells): 1.9 µg/mL (≈ 3.67 µM)

SMILES: N#Cc1c(-c2c(Cl)cccc2Cl)nc(SCC(=O)c2ccc(Br)cc2)[nH]c1=O [compound 199]
inhibitory effect toward HOP-92 [17]: > 50%

ZIKV EC50 (Vero cells) (ZIKV): inactive
SMILES: CCc1c(CC2CCCCC2)nc(SCC(=O)Nc2cc(F)cc(F)c2)[nH]c1=O [compound 211]
